Measurements taken from patent US5627203A, “Tricyclic oxime ethers” (Adir et Compagnie, priority 1994, dated 1997).
pIC50: −log10 of the molar value.

Tests used:
[1] = biological target: T1, serotonin reuptake site (Rattus norvegicus, UniProt P31652); assay: Displacement of 3H-paroxetine at the serotonin reuptake site; format: binding; settings: rat brain without cerebellum, read-out: IC50, serotonin reuptake sites
T1 construct: rat brain from which the cerebellum has been removed; from tissue; host or cells: rat brain without cerebellum
Procedure: (§1) A-2: Study of the binding of the compounds of the invention to the serotonin reuptake site as well as to 5-HT1, 5-HT1A, 5-HT1B, 5-HT1D, 5-HT2, 5-HT2C, 5-HT4 serotoninergic receptors.
(§2) The binding of the compounds of the invention is measured in accordance with conventional methods.
for the serotonin reuptake site, by the displacement of ^3 H-paroxetinein rat brain from which the cerebellum has been removed, […]

[2] = biological target: 5-HT1D receptors; assay: Displacement of 5-OH-tryptamine at 5-HT1D receptors; format: binding; settings: rat cortex, striatum and globus pallidus homogenates
Procedure: as §1, §2
for 5-HT1D receptors, by the displacement of 5-OH-tryptamine in rat cortex, striatum and globus pallidus homogenates, […]

[3] = biological target: T2, 5-HT2 receptors (Rattus norvegicus, UniProt P14842); assay: Displacement of aminoiodoketaneserine at 5-HT2 receptors; format: binding; settings: rat frontal cortex homogenates
T2 construct: rat frontal cortex homogenates; from tissue; host or cells: rat frontal cortex
Procedure: as §1, §2
for 5-HT2 receptors, by the displacement of aminoiodoketaneserine in rat frontal cortex homogenates, […]

[4] = biological target: T3, 5-HT1A receptors (Rattus norvegicus, UniProt P19327); assay: Displacement of 8-OH-DPAT at 5-HT1A receptors; format: binding; settings: rat hippocampus homogenates
T3 construct: rat hippocampus homogenates; from tissue; host or cells: rat hippocampus
T3 sequence (P19327 1-422): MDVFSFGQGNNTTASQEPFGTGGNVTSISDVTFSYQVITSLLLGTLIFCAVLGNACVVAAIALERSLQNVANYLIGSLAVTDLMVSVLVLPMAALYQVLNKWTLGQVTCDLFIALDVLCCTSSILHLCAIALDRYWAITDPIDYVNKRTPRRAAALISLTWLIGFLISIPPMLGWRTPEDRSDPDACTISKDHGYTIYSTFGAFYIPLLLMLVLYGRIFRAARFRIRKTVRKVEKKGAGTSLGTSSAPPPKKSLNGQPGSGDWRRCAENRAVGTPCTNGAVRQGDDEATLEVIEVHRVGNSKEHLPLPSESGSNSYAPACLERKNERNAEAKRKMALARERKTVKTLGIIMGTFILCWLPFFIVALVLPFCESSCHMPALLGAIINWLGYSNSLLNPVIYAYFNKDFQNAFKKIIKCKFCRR
Procedure: as §1, §2
for 5-HT1A receptors, by the displacement of 8-OH-DPAT in rat hippocampus homogenates, […]

[5] = biological target: T4, 5-HT3 receptors (Rattus norvegicus, UniProt P35563); assay: Displacement of 3H-zacopride at 5-HT3 receptors; format: binding; settings: 0.3-0.4 nM 3H-zacopride, rat area postrema homogenates, pH 7.4, 25° C., 30 minutes
T4 construct: rat area postrema homogenates; from tissue; host or cells: rat area postrema
T4 sequence (P35563 24-483): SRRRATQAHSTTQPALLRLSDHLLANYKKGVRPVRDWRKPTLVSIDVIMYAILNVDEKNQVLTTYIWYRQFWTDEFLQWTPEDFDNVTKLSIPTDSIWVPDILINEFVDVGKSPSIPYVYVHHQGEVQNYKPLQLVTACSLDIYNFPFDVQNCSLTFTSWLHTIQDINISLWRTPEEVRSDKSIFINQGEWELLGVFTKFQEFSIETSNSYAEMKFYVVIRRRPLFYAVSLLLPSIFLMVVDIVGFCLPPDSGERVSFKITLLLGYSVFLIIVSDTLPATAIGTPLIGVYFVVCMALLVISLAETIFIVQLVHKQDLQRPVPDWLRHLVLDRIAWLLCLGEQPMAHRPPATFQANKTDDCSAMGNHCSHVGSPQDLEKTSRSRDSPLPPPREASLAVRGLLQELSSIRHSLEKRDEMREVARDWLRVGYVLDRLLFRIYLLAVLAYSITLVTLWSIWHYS
Procedure: A-1: Study of the binding of the compounds of the invention to 5-HT3 serotoninergic receptors
The binding of the compounds of the invention to 5-HT3 receptors was determined for each compound by measuring the displacement of ^3 H-zacopride (specific ligand for 5-HT3 receptors) in rat area postrema homogenates.
Aliquot amounts (50-100 μl) of a membrane suspension (2.5-5.0 mg of protein/cm^3) are incubated for 30 minutes at 25° C. in a Tris-HCl buffer, 25 mM, pH 7,4, in the presence of 0.3-0.4 nM 3^H -zacopride (83 ci/mmol) (total volume: 0.5 cm^3). The incubation is terminated by filtering the samples through Whatman GF/B filters which are then washed and dried. The radioactivity retained on the filters is finally calculated by spectrometry in liquid medium (Aquasol). The non-specific binding is evaluated under the same conditions using samples containing in addition 1 μM of ondansetron (5-HT3 antagonist). The displacement curves obtained by adding increasing concentrations of a test compound to the incubation medium are analysed to determine the affinity of the test compounds for 5-HT3 receptors.

[6] = biological target: T5, 5-HT1B receptors (Rattus norvegicus, UniProt P28564); assay: Displacement of 5-hydroxytryptamine at 5-HT1B receptors; format: binding; settings: rat cortex, striatum, and globus pallidus homogenates
T5 construct: rat cortex, striatum, and globus pallidus homogenates; from tissue; host or cells: rat cortex, striatum and globus pallidus
Procedure: as §1, §2
for 5-HT1B receptors, by the displacement of 5-hydroxytryptamine in rat cortex, striatum, and globus pallidus homogenates, […]

[7] = biological target: T6, 5-HT2C receptors (Rattus norvegicus, UniProt P08909); assay: Displacement of N-methylmesulergine at 5-HT2C receptors; format: binding; settings: rat frontal cortex and hippocampus homogenates
T6 construct: rat frontal cortex and hippocampus homogenates; from tissue; host or cells: rat frontal cortex and hippocampus
T6 sequence (P08909 33-460): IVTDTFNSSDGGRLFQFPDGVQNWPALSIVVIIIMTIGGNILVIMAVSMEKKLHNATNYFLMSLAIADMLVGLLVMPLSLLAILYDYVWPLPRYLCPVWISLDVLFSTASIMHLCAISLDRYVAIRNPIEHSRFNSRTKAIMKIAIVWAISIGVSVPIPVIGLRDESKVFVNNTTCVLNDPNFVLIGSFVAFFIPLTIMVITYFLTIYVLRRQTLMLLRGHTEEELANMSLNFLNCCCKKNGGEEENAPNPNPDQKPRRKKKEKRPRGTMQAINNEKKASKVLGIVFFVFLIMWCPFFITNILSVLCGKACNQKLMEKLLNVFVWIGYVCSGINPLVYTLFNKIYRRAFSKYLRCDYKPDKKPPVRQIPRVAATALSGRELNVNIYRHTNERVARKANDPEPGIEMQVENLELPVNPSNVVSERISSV
Procedure: as §1, §2
for 5-HT2C receptors, by the displacement of N-methylmesulergine in rat frontal cortex and hippocampus homogenates, […]

[8] = biological target: 5-HT1 receptors; assay: Displacement of 5-OH tryptamine at 5-HT1 receptors; format: binding; settings: pig frontal cortex and striatum
Procedure: as §1, §2
for 5-HT1 receptors, by the displacement of 5-OH tryptamine in pig frontal cortex and striatum, […]

[9] = system: mouse; assay: Antidepressant activity: forced swimming test on the mouse; format: in vivo; settings: i.p. route, last 4 of 6 minutes
Procedure: The antidepressant effects of the compounds of the invention were studied in accordance with the forced swimming test on the mouse. (Behavioural despair in mice: a primary screening test for antidepressants, Porsolt R. D. et al, Arch. Int. Pharmacodyn., (1977), 229, pp. 327-336).
The animals are placed for 6 minutes in a cylinder containing water from which they cannot escape. The period of immobility of the animals is measured for the last 4 minutes of the test. The test compounds are administered in a single dose before the test (imipramine being used as the reference compound).

T1 sequence (P31652 whole entry): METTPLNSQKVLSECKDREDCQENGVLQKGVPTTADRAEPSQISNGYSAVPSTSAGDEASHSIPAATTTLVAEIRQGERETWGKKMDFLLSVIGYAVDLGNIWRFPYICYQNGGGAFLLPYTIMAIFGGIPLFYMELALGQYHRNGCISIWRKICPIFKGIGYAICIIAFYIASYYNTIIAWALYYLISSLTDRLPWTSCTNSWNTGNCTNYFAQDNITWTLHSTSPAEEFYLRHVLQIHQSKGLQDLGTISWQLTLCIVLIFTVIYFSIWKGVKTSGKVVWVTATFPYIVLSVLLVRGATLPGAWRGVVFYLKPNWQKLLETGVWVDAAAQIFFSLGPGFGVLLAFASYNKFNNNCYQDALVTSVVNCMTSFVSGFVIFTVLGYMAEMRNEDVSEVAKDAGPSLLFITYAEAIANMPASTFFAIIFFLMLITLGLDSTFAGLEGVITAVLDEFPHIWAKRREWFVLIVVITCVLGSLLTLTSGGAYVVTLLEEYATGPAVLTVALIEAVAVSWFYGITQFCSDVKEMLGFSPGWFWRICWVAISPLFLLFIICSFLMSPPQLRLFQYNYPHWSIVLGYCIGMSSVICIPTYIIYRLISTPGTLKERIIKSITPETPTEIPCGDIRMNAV
T5 sequence (P28564 whole entry): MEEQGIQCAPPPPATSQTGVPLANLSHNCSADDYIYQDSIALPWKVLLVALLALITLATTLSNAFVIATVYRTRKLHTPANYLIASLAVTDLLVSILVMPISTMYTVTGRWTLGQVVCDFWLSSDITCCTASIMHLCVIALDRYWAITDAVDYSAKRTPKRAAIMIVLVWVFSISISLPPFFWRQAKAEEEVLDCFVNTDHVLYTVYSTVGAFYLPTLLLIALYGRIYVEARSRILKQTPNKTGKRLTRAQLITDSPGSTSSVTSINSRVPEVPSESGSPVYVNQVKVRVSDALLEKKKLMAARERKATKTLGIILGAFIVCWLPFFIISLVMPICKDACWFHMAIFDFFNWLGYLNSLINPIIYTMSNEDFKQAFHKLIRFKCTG
T2 sequence (P14842 whole entry): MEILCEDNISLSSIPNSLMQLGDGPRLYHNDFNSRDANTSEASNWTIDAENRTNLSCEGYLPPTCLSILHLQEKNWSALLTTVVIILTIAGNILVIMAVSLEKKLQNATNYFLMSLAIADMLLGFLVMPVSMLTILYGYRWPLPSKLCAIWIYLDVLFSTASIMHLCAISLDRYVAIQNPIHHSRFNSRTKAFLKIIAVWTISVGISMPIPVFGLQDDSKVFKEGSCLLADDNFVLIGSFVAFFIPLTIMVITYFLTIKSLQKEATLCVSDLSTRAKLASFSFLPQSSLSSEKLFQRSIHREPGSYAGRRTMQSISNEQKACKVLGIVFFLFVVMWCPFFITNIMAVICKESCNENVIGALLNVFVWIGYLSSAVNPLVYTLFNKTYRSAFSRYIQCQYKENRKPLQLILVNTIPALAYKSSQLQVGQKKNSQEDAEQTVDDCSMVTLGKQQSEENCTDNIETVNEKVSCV

| SMILES | pIC50 [1] | pIC50 [2] | pIC50 [3] | pIC50 [4] | pIC50 [5] | pIC50 [6] | pIC50 [7] | pIC50 [8] | Period of immobility expressed as a percentage by comparison with the control group ([9]; 32 mg/kg, **p < 0.01) | Period of immobility expressed as a percentage by comparison with the control group ([9]; 64 mg/kg, ***p < 0.001) |
| --- | --- | --- | --- | --- | --- | --- | --- | --- | --- | --- |
| CN1CCCC1CON=C1c2sccc2-n2cccc21 (racemic) [Example 13] | 6.22 | 4.96 | 4.85 | < 4.00 | 8.70 | 4.51 | 6.00 | 4.80 | – | – |
| Cc1csc2c1-n1cccc1/C2=N/OCCN(C)C [Example 3, (Z)-8-{[2-(N,N-Dimethylamino)ethoxy]imino}-3-methylthieno[2,3-d]pyrrolo-[1,2-a]pyrrole] | 6.92 | 6.32 | 5.51 | 5.24 | 9.96 | 5.57 | 5.68 | 5.66 | -39% | -86% |
| CN(C)CCON=C1c2sccc2-n2cccc21 [Example 4] | 6.05 | 6.39 | 5.30 | 6.32 | – | 6.21 | 6.09 | 6.26 | – | – |
| Cc1csc2c1-n1cccc1/C2=N/OCCCN(C)C [Example 14] | 5.96 | 5.15 | 4.38 | 4.66 | – | 4.49 | 4.74 | 4.96 | – | – |
| CCN(CC)CCON=C1c2scc(C)c2-n2cccc21 [Example 15] | 6.89 | 5.40 | 4.89 | 4.68 | 8.30 | 5.19 | 6.08 | 4.96 | – | – |
| Cc1csc2c1-n1cccc1C2=NOCCN1CCCC1 [Example 17] | 6.52 | 5.49 | 5.43 | 5.80 | 8.70 | 5.44 | 6.15 | 5.52 | – | – |
| Cc1csc2c1-n1cccc1C2=NOCCN1CCCCC1 [Example 18] | 6.59 | 5.12 | 5.28 | 5.24 | 8.40 | 4.85 | 5.92 | 5.29 | – | – |
| Cc1csc2c1-n1cccc1/C2=N/OCC(C)CN(C)C (stereo not drawn) [Example 23] | 5.30 | 4.96 | 4.85 | 4.28 | 8.27 | 4.62 | 5.70 | 5.02 | – | – |
| Cc1csc2c1-n1cccc1C2=NOC(CCN(C)C)c1ccccc1 (stereo not drawn) [Example 39, 3-Methyl-8-{[3-(N,N-dimethylamino)-1-phenylprop-1-yloxy]imino}thieno-[2,3-d]pyrrolo[1,2-a]pyrrole] | 7.14 | 5.17 | 5.66 | 4.96 | 6.70 | < 4.00 | 7.21 | 5.00 | -53% | – |
| Cc1csc2c1-n1cccc1/C2=N/OCCN [Example 40, (Z)-3-Methyl-8-[(2-amino-ethoxy)imino]thieno[2,3-d]pyrrolo[1,2-a]pyrrole] | 6.24 | 5.57 | 4.82 | 5.51 | – | 6.04 | 6.74 | 6.05 | – | – |
| Cc1csc2c1-n1cccc1/C2=N/OCCNCc1ccccc1 [Example 41, (Z)-3-Methyl-8-{[2-(N-benzylamino)ethoxy]imino}thieno[2,3-d]pyrrolo[1,2-a]-pyrrole] | 6.96 | 4.96 | 5.39 | 5.04 | – | 5.36 | 6.38 | 5.57 | – | – |
| CN(C)CCON=C1c2cc(Cl)ccc2-n2cccc21 [Example 49, 7-Chloro-9-{[2-(N,N-dimethylamino)ethoxy]imino}pyrrolo[1,2-a]indole] | 4.92 | 5.51 | 5.12 | 4.68 | 7.07 | 5.85 | 4.96 | 5.62 | – | – |
| Cc1ccc2c(c1)C(=NOCC(C)N(C)C)c1cccn1-2 (stereo not drawn) [Example 52] | 4.89 | 6.09 | 5.08 | 5.48 | 7.36 | 5.42 | 5.64 | 5.70 | – | – |
| Cc1ccc2c(c1)C(=NOCCC1CCCN1C)c1cccn1-2 (stereo not drawn) [Example 53] | 4.62 | 5.26 | 4.66 | 4.85 | 7.43 | 4.46 | 5.22 | 5.08 | – | – |
| CN(C)CCON=C1c2ccccc2-n2cccc21 [Example 54] | 6.03 | 6.16 | 4.85 | 5.96 | – | 5.96 | 5.85 | 6.85 | – | – |
| CC(CON=C1c2ccccc2-n2cccc21)N(C)C (stereo not drawn) [Example 55] | 6.49 | 5.85 | 4.92 | 5.42 | 8.28 | 5.36 | 5.39 | 5.55 | – | – |
